Results from US8563746B2, “Cyclic benzimidazole derivatives useful as anti-diabetic agents” (Merck Sharp & Dohme Corp, priority 2008, dated 2013).
Read-outs that look alike come from different tables or passages of the source.

Target: recombinant human AMPK complex 1 (containing α1β1γ1) (Homo sapiens, UniProt Q13131+Q9Y478)
Assay: In vitro AMPK activation assay ([…])
Format: biochemical
Conditions: for Emax: basal activity subtracted, expressed as % maximum AMP activation
Method: The recombinant human AMPK complex 1 (containing α1β1γ1) was obtained from baculovirus expression system. Recombinant viruses were generated by cotransfection of AMPK/pBacPak9 clones with Baculogold baculovirus DNA (Pharmingen) in spodoptera frugiperda 21 cells according to the manufacturer's instructions. Each round of virus amplification was performed for 5 days in Grace's medium containing 10% serum. Virus that had been subjected to three rounds of amplification was used for all protein production procedures. To express the AMPK complex, sf21 cells were adapted to serum free medium (SF900 II, Invitrogen) by sequential dilution from serum containing stocks into SF900II medium and maintained in shaker flasks at 90 rpm at 27° C. The recombinant AMPK enzyme complex was produced by triple infection, one recombinant virus for each of the subunits, in sf21 cells under serum free conditions. Cells were infected in log phase, 1×10^6 cells/ml, at a multiplicity of infection of ˜5. Cells were harvested by centrifugation at 10,000×g for 15 minutes after 72 hours of infection with viruses. The insect cell pellet from 2 liters of culture was resuspended in 50 ml lysis buffer (20 mM Tris-HCl, 50 mM NaCl, 50 mM NaF, 30 mM Na PPi, 0.25 M sucrose, 10 mM ZnCl2, 2 mM DTT, 0.4 mg/ml digitonin) and subjected to two cycles of freeze-thaw lysis in a dry-ice ethanol bath. Insoluble material was removed by centrifugation at 10,000×g and the supernatant was fractionated with use of polyethylene glycol (PEG). The protein fraction precipitating between 2.5 and 6% PEG was used for further purification using a Blue-Sepharose step (Zhou et al, J. Clin. Invest. 108, 1167-1174, 2001).
The total in vitro AMPK activation assay volume is 50 μl in a 96-well plate. The reaction mixture contained 100 μM ATP (0.5 μCi ^33P-ATP per reaction), and 50 μM SAMS ([…]) in a buffer (20 mM HEPES, pH 7.0, 5 mM MgCl2, 0.01% Brij35). The reaction was initiated with addition of the enzyme. After 30-minute incubation at 30° C., the reaction was stopped by addition of 80 μl 1% H3PO4. Aliquots (100 μl) were transferred to 96-well MultiScreen plates (MAPHNOB50; Millipore Corp., Bedford, Mass., USA). The plate was washed three times with 1% H3PO4 followed by detection in a Top-count. The counts per minute from the basal activity (the reaction without activator) was subtracted from each well and the data were expressed as % maximum AMP activation followed by EC50 calculation.

[1] = recombinant human AMPK complex 1 (α1β1γ1)
[2] = recombinant human AMPK complex 1 (α1β1γ1), read-out: EC50

recombinant human AMPK complex 1 (containing α1β1γ1), sequence (Q13131 whole entry): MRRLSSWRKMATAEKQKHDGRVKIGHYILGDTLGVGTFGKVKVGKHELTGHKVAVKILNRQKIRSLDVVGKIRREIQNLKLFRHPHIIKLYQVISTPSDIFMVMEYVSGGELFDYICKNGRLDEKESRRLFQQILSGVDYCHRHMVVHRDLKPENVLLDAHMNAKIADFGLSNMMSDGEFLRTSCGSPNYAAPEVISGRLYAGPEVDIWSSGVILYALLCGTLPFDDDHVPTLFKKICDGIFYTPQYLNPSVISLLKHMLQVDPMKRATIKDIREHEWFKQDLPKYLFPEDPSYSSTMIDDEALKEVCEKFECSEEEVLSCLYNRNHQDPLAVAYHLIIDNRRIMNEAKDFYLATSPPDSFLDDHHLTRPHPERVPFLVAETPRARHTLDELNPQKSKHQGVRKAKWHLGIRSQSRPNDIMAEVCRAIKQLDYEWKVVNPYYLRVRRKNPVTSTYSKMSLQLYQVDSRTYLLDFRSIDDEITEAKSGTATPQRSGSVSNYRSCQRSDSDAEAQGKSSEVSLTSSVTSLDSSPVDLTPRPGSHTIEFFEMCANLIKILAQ
recombinant human AMPK complex 1 (containing α1β1γ1), sequence (Q9Y478 whole entry): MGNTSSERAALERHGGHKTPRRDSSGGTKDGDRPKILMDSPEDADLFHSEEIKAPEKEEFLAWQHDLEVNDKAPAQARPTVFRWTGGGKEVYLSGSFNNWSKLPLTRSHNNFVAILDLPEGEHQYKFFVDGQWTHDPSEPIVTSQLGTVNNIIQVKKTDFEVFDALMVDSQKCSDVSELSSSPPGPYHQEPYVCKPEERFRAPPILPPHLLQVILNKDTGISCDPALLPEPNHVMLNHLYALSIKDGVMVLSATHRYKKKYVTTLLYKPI
recombinant human AMPK complex 1 (containing α1β1γ1), sequence (P54619 whole entry partner): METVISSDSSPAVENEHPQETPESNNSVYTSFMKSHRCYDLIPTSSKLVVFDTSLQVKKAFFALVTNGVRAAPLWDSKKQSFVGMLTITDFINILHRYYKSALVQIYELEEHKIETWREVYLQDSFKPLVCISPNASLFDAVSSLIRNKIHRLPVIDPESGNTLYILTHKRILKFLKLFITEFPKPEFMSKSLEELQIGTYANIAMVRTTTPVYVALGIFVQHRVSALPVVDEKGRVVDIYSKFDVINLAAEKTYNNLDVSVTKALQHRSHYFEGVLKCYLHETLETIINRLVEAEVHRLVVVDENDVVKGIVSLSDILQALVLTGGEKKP

Compound	Emax [1]	also measured
O=C(O)CSc1nc2cc(C#Cc3ccccc3)c(Cl)cc2[nH]1 [Example 1, (6-Chloro-5-phenylethynyl-1H-benzoimidazol-2-ylsulfanyl)-acetic acid]	–	EC50: 259 nM
O=C(O)CSc1nc2cc(-c3ccc(-c4ccccc4)cc3)c(Cl)cc2[nH]1 [Example 2, (5-Biphenyl-4-yl-6-chloro-1H-benzoimidazol-2-ylsulfanyl)-acetic acid]	–	EC50: 90 nM
O=C(O)CSc1nc2cc(-c3ccc4c(c3)OCO4)c(Cl)cc2[nH]1 [Example 3, (5-1,3-benzo-dioxol-5-yl-6-chloro-1H-benzimidazol-2-ylsulfanyl)-acetic acid]	> 40%	–
O=C(O)CSc1nc2cc(-c3cccc(F)c3)c(Cl)cc2[nH]1 [Example 4, [6-chloro-5-(3-fluoro-phenyl)-1H-benzimidazol-2-ylsulfanyl]-acetic acid]	> 40%	–
O=C(O)CSc1nc2cc(-c3cc(F)cc(F)c3)c(Cl)cc2[nH]1 [Example 5, [6-chloro-5-(3,5-difluoro-phenyl)-1H-benzimidazol-2-ylsulfanyl]-acetic acid]	> 40%	–
O=C(O)CSc1nc2cc(-c3ccc(-c4ccccc4O)cc3)c(Cl)cc2[nH]1 [Example 6, 2-(6-chloro-5-(2′-hydroxybiphenyl-4-yl)-1H-benzo[d]imidazol-2-ylthio)acetic acid]	–	EC50 [2]: 13 nM
CC(=O)NCc1ccc(-c2cc3nc(SCC(=O)O)[nH]c3cc2Cl)cc1 [Example 7, 2-(6-(4-(acetamido-methyl)phenyl)-5-chloro-1H-benzo[d]-imidazol-2-ylthio)-acetic acid]	> 40%	–
O=C(O)CSc1nc2cc(-c3ccc(O)cc3)c(Cl)cc2[nH]1 [Example 8, 2-(6-chloro-5-(4-hydroxyphenyl)-1H-benzo[d]imidazol-2-ylthio)acetic acid]	> 40%	–
O=C(O)CSc1nc2cc(-c3ccc(CO)cc3)c(Cl)cc2[nH]1 [Example 9, 2-(6-chloro-5-(4-(hydroxymethyl)phenyl)-1H-benzo[d]-imidazol-2-ylthio)-acetic acid]	> 40%	–
Nc1ccccc1C#Cc1cc2nc(SCC(=O)O)[nH]c2cc1Cl [Example 10, 2-(5-((2-amino-phenyl)ethynyl)-6-chloro-1H-benzo[d]-imidazol-2-ylthio)-acetic acid]	> 40%	–
O=C(O)CSc1nc2cc(-c3ccc4cn[nH]c4c3)c(Cl)cc2[nH]1 [Example 11, 2-(6-chloro-5-(1H-indazol-6-yl)-1H-benzo[d]imidazol-2-ylthio)acetic acid]	> 40%	–
COc1ccc(-c2cc3nc(SCC(=O)O)[nH]c3cc2Cl)cn1 [Example 12, 2-(6-chloro-5-(6-methoxypyridin-3-yl)-1H-benzo[d]imidazol-2-ylthio)acetic acid]	> 40%	–
O=C(O)CSc1nc2cc(-c3cc4ccccc4o3)c(Cl)cc2[nH]1 [Example 13, 2-(5-(benzofuran-2-yl)-6-chloro-1H-benzo[d]imidazol-2-ylthio)acetic acid]	> 40%	–
O=C(O)CSc1nc2cc(-c3csc4ccccc34)c(Cl)cc2[nH]1 [Example 14, 2-(5-(benzo[b]-thiophen-3-yl)-6-chloro-1H-benzo[d]-imidazol-2-ylthio)-acetic acid]	> 40%	–
O=C(O)CSc1nc2cc(-c3ccc(-n4cccn4)cc3)c(Cl)cc2[nH]1 [Example 15, 2-(5-(4-(1H-pyrazol-1-yl)phenyl)-6-chloro-1H-benzo[d]imidazol-2-ylthio)acetic acid]	> 40%	–
O=C(O)CSc1nc2cc(-c3ccc(-c4ccn[nH]4)cc3)c(Cl)cc2[nH]1 [Example 16, 2-(5-(4-(1H-pyrazol-5-yl)phenyl)-6-chloro-1H-benzo[d]imidazol-2-ylthio)acetic acid]	> 40%	–
CC(=O)Nc1cccc(C#Cc2cc3nc(SCC(=O)O)[nH]c3cc2Cl)c1 [Example 17, 2-(5-((3-acetamido-phenyl)ethynyl)-6-chloro-1H-benzo[d]-imidazol-2-ylthio)-acetic acid]	> 40%	–
O=C(O)CSc1nc2cc(C#Cc3ccc(CO)cc3)c(Cl)cc2[nH]1 [Example 18, [6-Chloro-5-(4-hydroxymethyl-phenylethynyl)-1H-benzoimidazol-2-ylsulfanyl]-acetic acid]	–	EC50 [2]: 248 nM
CS(=O)(=O)c1ccc(C#Cc2cc3nc(SCC(=O)O)[nH]c3cc2Cl)cc1 [Example 19, [6-chloro-5-(4-methanesulfonyl-phenyl-ethynyl)-1H-benzo-imidazol-2-yl-sulfanyl]-acetic acid]	> 40%	–

Compound	Emax [1]	also measured
N#Cc1ccccc1C#Cc1cc2nc(SCC(=O)O)[nH]c2cc1Cl [Example 20, [6-chloro-5-(2-cyano-phenyl-ethynyl)-1H-benzo-imidazol-2-ylsulfanyl]-acetic acid]	> 40%	–
O=C(O)CSc1nc2cc(C#CC3CCNCC3)c(Cl)cc2[nH]1 [Example 21, (6-chloro-5-piperidin-4-ylethynyl-1H-benzoimidazol-2-ylsulfanyl)-acetic acid]	> 40%	–
O=C(O)CSc1nc2cc(C#Cc3ccc(F)cc3)c(Cl)cc2[nH]1 [Example 22]	> 40%	–
O=C(O)CSc1nc2cc(C#Cc3cccc(F)c3)c(Cl)cc2[nH]1 [Example 23]	> 40%	–
O=C(O)CSc1nc2cc(C#Cc3ccc(F)cc3F)c(Cl)cc2[nH]1 [Example 24, [6-chloro-5-(2,4-difluoro-phenyl-ethynyl)-1H-benzoimidazol-2-ylsulfanyl]-acetic acid]	> 40%	–
O=C(O)CSc1nc2cc(C#Cc3ccncc3)c(Cl)cc2[nH]1 [Example 25, (6-chloro-5-pyridin-4-yl-ethynyl-1H-benzoimidazol-2-ylsulfanyl)-acetic acid]	> 40%	–
O=C(O)CSc1nc2cc(C#CCOc3ccccc3)c(Cl)cc2[nH]1 [Example 26, [6-chloro-5-(3-phenoxy-prop-1-ynyl)-1H-benzo-imidazol-2-yl-sulfanyl]-acetic acid]	> 40%	–
O=C(O)CSc1nc2cc(C#Cc3ccccc3F)c(Cl)cc2[nH]1 [Example 27]	> 40%	–
N#Cc1ccc(C#Cc2cc3nc(SCC(=O)O)[nH]c3cc2Cl)cc1 [Example 28, [6-chloro-5-(4-cyano-phenyl-elhynyl)-1H-benzoimidazol-2-ylsulfanyl]-acetic acid]	> 40%	–
O=C(O)CSc1nc2cc(C#Cc3cccc(O)c3)c(Cl)cc2[nH]1 [Example 29, [6-chloro-5-(3-hydroxyphenyl-ethynyl)-1H-benzoimidazol-2-ylsulfanyl]-acetic acid]	> 40%	–
Cc1ccccc1C#Cc1cc2nc(SCC(=O)O)[nH]c2cc1Cl [Example 30, (6-chloro-5-o-tolylethynyl-1H-benzo-imidazol-2-ylsulfanyl)-acetic acid]	> 40%	–
Cc1cccc(C#Cc2cc3nc(SCC(=O)O)[nH]c3cc2Cl)c1 [Example 31, (6-chloro-5-m-tolylethynyl-1H-benzoimidazol-2-ylsulfanyl)-acetic acid]	> 40%	–
COc1cccc(C#Cc2cc3nc(SCC(=O)O)[nH]c3cc2Cl)c1 [Example 32, [6-chloro-5-(3-methoxy-phenyl-ethynyl)-1H-benzoimidazol-2-ylsulfanyl]-acetic acid]	> 40%	–
O=C(O)CSc1nc2cc(C#Cc3ccc(Oc4ccccc4)cc3)c(Cl)cc2[nH]1 [Example 33, [6-Chloro-5-(4-phenoxy-phenylethynyl)-1H-benzoimidazol-2-ylsulfanyl]-acetic acid]	> 40%	–
O=C(O)CSc1nc2cc(C#Cc3ccc(-c4ccccc4)cc3)c(Cl)cc2[nH]1 [Example 34, (5-biphenyl-4-ylethynyl-6-chloro-1H-benzoimidazol-2-ylsulfanyl)-acetic acid]	> 40%	–
O=C(O)CSc1nc2cc(C#CC3CCCC3)c(Cl)cc2[nH]1 [Example 35, (6-chloro-5-cyclo-pentylethynyl-1H-benzo-imidazol-2-yl-sulfanyl)-acetic acid]	> 40%	–
CCc1ccc(C#Cc2cc3nc(SCC(=O)O)[nH]c3cc2Cl)cc1 [Example 36, [6-chloro-5-(4-ethyl-phenyl-ethynyl)-1H-benzo-imidazol-2-yl-sulfanyl]-acetic acid]	> 40%	–
COc1ccc2cc(C#Cc3cc4nc(SCC(=O)O)[nH]c4cc3Cl)ccc2c1 [Example 37, [6-chloro-5-(6-methoxy-naphthalen-2-yl-ethynyl)-1H-benzo-imidazol-2-yl-sulfanyl]-acetic acid]	> 40%	–
